The source of these data is patent US9675592B2, “Methods and compositions for bacteria infections” (priority 2013, dated 2017).

Converted amounts (≈) assume the structure as drawn. “And” between values parts separate entries of the source, which are not always exact repeats. Identical values can stand only once. Like-named read-outs stand apart in the source and are kept apart here.

For orientation: Kd means the free concentration of one partner at which half of the binding sites on the other are occupied at equilibrium, for simple one-to-one binding.

Assay [1] has as its target cytoplasmic domain of VraS (VraS-C) (Staphylococcus aureus, UniProt Q99SZ7). Kind of assay: biochemical. The assay is classed as binding.
Another assay has as its target VraR (Staphylococcus aureus, UniProt Q7A4R9). Description: biochemical. The conditions noted are these: for Kd / RUmax VraR: His-tagged VraR; for Kd: NB = No Binding; for binding to VraR: SPR. The assay is classed as binding.
Assay [2] deals with PurC (unrelated protein, control) (Bacillus anthracis, UniProt Q81ZH5). In kind it is binding. The conditions noted are these: read-out: KD PurC (control).
Assay [3] concerns test strain 923 pPvra-lux. Description: Secondary screen / synergy confirmation of Top 40, relative growth with oxacillin. In kind it is cell-based, Staphylococcus aureus. The conditions noted are these: Top 40 library, compound at maximum non-GI conc. The procedure: In the secondary screen each microtiter plate contained either cells in TSB alone (16 replicates), cells with oxacillin (2 μg/mL, 31 replicates), or cells with test compound and oxacillin (2 μg/mL, 49 wells). Each compound was assayed in four separate biological replicates.
Synergy Confirmation of “Top 40”. […]

Assay [4] concerns vraSR promoter (Pvra-lux reporter in strain 923). In kind it is cell-based, Staphylococcus aureus. The procedure:
In the secondary screen each microtiter plate contained either cells in TSB alone (16 replicates), cells with oxacillin (2 μg/mL, 31 replicates), or cells with test compound and oxacillin (2 μg/mL, 49 wells). Each compound was assayed in four separate biological replicates. […]

The test system of assay [5] is test strain (923 pPvra-lux). Description: Growth inhibition by compound alone (maximum non-growth-inhibitory concentration). The assay is classed as cell-based, Staphylococcus aureus. The conditions noted are these: compound alone; maximum concentration where it did NOT inhibit growth.
The next assay deals with multiple strains of MRSA. Kind of assay: MICs (minimal inhibitory concentrations) vs multiple strains of MRSA. In kind it is cell-based, Staphylococcus aureus. The conditions noted are these: compound at 0.25 mg/L.
Assay [6] has as its system test strain 923 pPvra-lux (USA300 MRSA). Description: Primary screen, relative growth in presence of oxacillin. The conditions noted are these: compound 10 μM with oxacillin 2 μg/mL, absorbance 24 h, <0.50 = dead cells = hit.
In assay [7] the test system is vraSR promoter (Pvra-lux reporter in strain 923). Description: Primary screen, relative luminescence (vraSR expression).
The test system of assay [8] is hetero VISA isolate, hVISA 2275. The conditions noted are these: vancomycin alone; hVISA 2275; cited from earlier work.
In assay [9] the test system is vancomycin intermediate resistant Staphylococcus aureus strain, VISA 2283. The conditions noted are these: vancomycin alone, VISA 2283, cited from earlier work.
The subject of assay [10] is vanA containing VRSA strain VRS2. The conditions noted are these: vancomycin alone; cited from earlier work.
The subject of assay [11] is vanA containing VRSA strain VRS1. The conditions noted are these: vancomycin alone; cited from earlier work.
Setting [12] is: new run with His-tagged VraS, NB = No Binding, read-out: KD VraS.

Sequence of PurC (unrelated protein, control) (Q81ZH5 whole entry, looked up): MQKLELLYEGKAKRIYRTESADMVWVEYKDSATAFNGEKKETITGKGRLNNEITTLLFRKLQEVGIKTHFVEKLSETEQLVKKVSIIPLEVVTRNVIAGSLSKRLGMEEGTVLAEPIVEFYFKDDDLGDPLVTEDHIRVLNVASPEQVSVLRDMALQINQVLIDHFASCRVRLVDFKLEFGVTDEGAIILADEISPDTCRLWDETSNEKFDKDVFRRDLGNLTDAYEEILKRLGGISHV
Sequence of VraR (Q7A4R9 whole entry): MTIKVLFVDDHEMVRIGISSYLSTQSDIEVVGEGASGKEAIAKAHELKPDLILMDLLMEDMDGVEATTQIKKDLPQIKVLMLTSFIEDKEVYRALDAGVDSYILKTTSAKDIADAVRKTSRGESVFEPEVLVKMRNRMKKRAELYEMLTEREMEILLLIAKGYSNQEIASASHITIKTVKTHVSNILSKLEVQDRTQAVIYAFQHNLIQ
Sequence of cytoplasmic domain of VraS (VraS-C) (Q99SZ7 70-347): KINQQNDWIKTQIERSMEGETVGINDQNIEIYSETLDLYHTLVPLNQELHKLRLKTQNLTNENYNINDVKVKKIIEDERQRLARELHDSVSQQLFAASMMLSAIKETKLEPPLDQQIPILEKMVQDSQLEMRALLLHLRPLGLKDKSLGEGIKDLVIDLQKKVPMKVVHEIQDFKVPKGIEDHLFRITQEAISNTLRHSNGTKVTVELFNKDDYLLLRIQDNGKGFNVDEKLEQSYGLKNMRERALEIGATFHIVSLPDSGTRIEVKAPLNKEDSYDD

Consider `O=C(Nc1nnc(-c2ccccc2Cl)o1)c1cccc(Oc2ccccc2)c1` [F1374-0081], for which the dissociation constant Kd (in assay [1] (setting [12]); at VraR; in assay [2]) was more than 100 µM throughout.
Consider `O=C(Nc1nnc(-c2ccc3c(c2)CCCC3)o1)c1cccc(C(F)(F)F)c1` [F0608-0575], for which the Kd (in assay [1] (setting [12]); on VraR; in assay [2]) was more than 100 µM in each case.
As for `CSc1cccc(-c2nnc(NC(=O)c3nc4ccccc4s3)o2)c1` [F2645-0188], the “RG Ox avg” value in [3] is recorded as 0.03. Also, the “RL Ox avg” value in assay [4] (Top 40 library, with oxacillin, compound at maximum non-GI conc) came out at 0.05. Moreover, in assay [4] (overall class from syn and rep), the vraSR repressing synergist is on record as 1. confirmed. Besides, in assay [5], the “maximum non-GI conc” value was determined as 40 µg/mL. Further, the “Ox MIC in presence of compound” value was 2 µg/mL with multiple strains of MRSA (isolate 923, SCCmec IV, ST 8); less than 0.5 µg/mL with multiple strains of MRSA (isolate 1176, SCCmec II, ST 231); 0.5 µg/mL with multiple strains of MRSA (isolate 2169, SCCmec IV, ST 72); 64 µg/mL in the assay on multiple strains of MRSA (isolate 8004-01, SCCmec III, ST 239); 0.5 µg/mL in the assay on multiple strains of MRSA (isolate 8010-01, SCCmec IV, ST 8); 0.5 µg/mL in the assay on multiple strains of MRSA (isolate 8227-01, SCCmec IV, ST 87). The “Ox MIC in presence of compound” value with multiple strains of MRSA (isolate 11095, SCCmec II, ST 105) is 32 µg/mL; in the assay with multiple strains of MRSA (isolate 13113, SCCmec II, ST 5) it was less than 0.13 µg/mL; in the assay on multiple strains of MRSA (isolate 13354, SCCmec IV, ST 5), less than 0.13 µg/mL; in the assay with multiple strains of MRSA (isolate 14315, SCCmec IV, ST 1) it was less than 0.5 µg/mL; in the assay on multiple strains of MRSA (isolate Q2461, SCCmec VT, ST 59) it was 0.25 µg/mL. Further, the Kd in assay [1] (His-tagged VraS-C, SPR, read-out: KD) is 56.1 ± 16.3 µM; in [1] (untagged VraS-C protein, SPR, read-out: KD) it was 13.2 ± 3.2 µM; on VraR, more than 100 µM; in assay [2], more than 100 µM. The “binding to VraS-C” value in assay [1] (SPR) is listed as “Binds”. Also, the results for the “RUmax VraS” value in assay [1] (new run with His-tagged VraS) and in [1] (previous run with untagged VraS) were “(74.1 ± 10.7)” and 325 ± 33, respectively. In addition, in [6], the “RG avg (relative growth)” value was 0.03. Besides, the “RL avg (relative luminescence)” value in [7] (primary screen, compound 10 μM with oxacillin 2 μg/mL, <0.50 = vraSR repressed = hit) is on record as 0.37.
Consider `O=C(Nc1nnc(-c2ccc(Br)cc2)o1)c1sc2ccccc2c1Cl` [F2518-0484], for which the Kd (in assay [1] (setting [12]); on VraR; in assay [2]) was more than 100 µM in each case.
In the case of `CS(=O)(=O)c1ccc(-c2nnc(NC(=O)c3ccc(Cl)s3)o2)cc1` [F2645-0790], the Kd (in [1] (setting [12]); on VraR; in assay [2]) was more than 100 µM in each case.
Turning to `O=C(Nc1nnc(-c2ccc(Br)cc2)o1)c1ccc(Cl)s1` [F2518-0474], the “binding to VraS-C” value in [1] (SPR) is “bound”. Moreover, the “RUmax VraS” value in assay [1] (new run with His-tagged VraS) was 52.9 ± 12.8. Also, the figures for the dissociation constant (Kd) (in assay [1] (setting [12]); at VraR; in assay [2]) were 79.5 ± 34.6 µM, 22.2 ± 5.4 µM and more than 100 µM, respectively. Further, on VraR, the “RUmax VraR” value was determined as 27.5 ± 2.4. Also, the “RG avg (relative growth)” value in assay [6] is 0.01. The “RL avg (relative luminescence)” value in [7] is reported as −0.01.
Take `O=C(Nc1nnc(-c2ccc(Br)cc2)o1)c1cccc(C(F)(F)F)c1` [F2518-0477]: the Kd (in assay [1] (setting [12]); on VraR; in [2]) was more than 100 µM each time.
As for `O=C(Nc1nnc(-c2ccc(F)cc2)o1)c1cccc(Br)c1` [F1374-0119], the dissociation constant Kd (in [1] (setting [12]); on VraR; in [2]) was more than 100 µM each time.
In the case of `CN[C@H](CC(C)C)C(=O)N[C@H]1C(=O)N[C@@H](CC(N)=O)C(=O)N[C@H]2C(=O)N[C@H]3C(=O)N[C@H](C(=O)N[C@H](C(=O)O)c4cc(O)cc(O)c4-c4cc3ccc4O)[C@H](O)c3ccc(c(Cl)c3)Oc3cc2cc(c3O[C@@H]2O[C@H](CO)[C@@H](O)[C@H](O)[C@H]2O[C@H]2C[C@](C)(N)[C@H](O)[C@H](C)O2)Oc2ccc(cc2Cl)[C@H]1O` [Van, Vancomycin], the “MIC Van” value in [8] is 4 µg/mL (≈ 2.76 µM); in assay [9] it was 8 µg/mL (≈ 5.52 µM); in assay [9] (listed as vancomycin), 16 µg/mL and 8 µg/mL; in assay [10], 16 µg/mL (≈ 11 µM); in assay [11], 1024 µg/mL (≈ 707 µM).
On to `O=C(Nc1nnc(-c2cc(Cl)ccc2Cl)o1)c1ccc(Cl)s1` [F2518-0042], for which the Kd (in assay [1] (setting [12]); at VraR; in [2]) was more than 100 µM throughout.
Regarding `O=C(Nc1nnc(-c2ccc(F)cc2)o1)c1nc2ccccc2s1` [F1374-0138], the dissociation constant Kd (in assay [1] (setting [12]); on VraR; in [2]) was more than 100 µM throughout.
As for `Cc1ccc(C)c(-c2nnc(NC(=O)c3cc(Cl)sc3Cl)o2)c1` [F2518-0360], the Kd (in [1] (setting [12]); at VraR; in assay [2]) was more than 100 µM throughout.
Take `COc1cccc(-c2nnc(NC(=O)c3cccc(F)c3)o2)c1` [F1374-0327]: the Kd (in [1] (setting [12]); on VraR; in assay [2]) was more than 100 µM each time.
As for `COc1cccc(-c2nnc(NC(=O)c3ccc(Cl)s3)o2)c1` [F1374-0351], the Kd (in [1] (setting [12]); at VraR; in assay [2]) was more than 100 µM each time.
Consider `Cc1ccc(-c2nnc(NC(=O)c3nc4ccccc4s3)o2)c(C)c1` [F2518-0183], for which the Kd (in assay [1] (setting [12]); on VraR; in assay [2]) was more than 100 µM in each case.
For `O=C(Nc1nnc(-c2ccccc2Cl)o1)c1nc2ccccc2s1` [F1374-0033], the “binding to VraS-C” value in [1] (SPR) was “bound”. Besides, the “RUmax VraS” value in assay [1] (new run with His-tagged VraS) is given as 64.3 ± 5.4. Besides, the Kd in [1] (setting [12]) is 19.6 ± 4.4 µM; on VraR, more than 100 µM; in [2], more than 100 µM.
As to `O=C(Nc1nnc(-c2cc(Cl)sc2Cl)o1)c1nc2ccccc2s1` [F1374-2739], in [1] (SPR), the “binding to VraS-C” value is on record as “bound”. Further, the “RUmax VraS” value in assay [1] (new run with His-tagged VraS) worked out at 69.1 ± 6.2. For the same compound, the Kd in assay [1] (setting [12]) was 69.6 ± 11.6 µM. For the same compound, at VraR, the “RUmax VraR” value was found to be 80.3 ± 8.8; the affinity, expressed as Kd, was 54.4 ± 12.2 µM; the “binding to VraR” value is “bound”. In addition, the equilibrium dissociation constant (Kd) in assay [2] is more than 100 µM.
For `Cc1ccc(C)c(-c2nnc(NC(=O)c3nc4ccccc4s3)o2)c1` [F2518-0327], in assay [1] (setting [12]), the dissociation constant (Kd) is more than 100 µM. On VraR, the “RUmax VraR” value came out at 46.5 ± 2.9, the dissociation constant (Kd) turned out to be 15.4 ± 6.4 µM and the “binding to VraR” value is on record as “bound”. In assay [2], the Kd was more than 100 µM.
In the case of `O=C(Nc1nnc(-c2ccc3c(c2)CCCC3)o1)c1nc2ccccc2s1` [F0608-0570], the Kd (in [1] (setting [12]); at VraR; in assay [2]) was more than 100 µM throughout.
As for `Cc1ccc(-c2nnc(NC(=O)c3ccccc3Cl)o2)c(C)c1` [F2518-0150], the dissociation constant Kd (in assay [1] (setting [12]); on VraR; in assay [2]) was more than 100 µM each time.
For the compound `O=C(Nc1nnc(-c2ccccc2Cl)o1)c1cccc(C(F)(F)F)c1` [F1374-0037], the “binding to VraS-C” value in assay [1] (SPR) is reported as “bound”. For the same compound, the “RUmax VraS” value in [1] (new run with His-tagged VraS) amounted to 45.1 ± 3.2. Moreover, the dissociation constant (Kd) is 25.8 ± 4.8 µM in assay [1] (setting [12]), more than 100 µM at VraR and more than 100 µM in assay [2]. In addition, the “RG avg (relative growth)” value in [6] was 0.02. Moreover, the “RL avg (relative luminescence)” value in assay [7] turned out to be 0.35.
